Test results published in paper doi:10.1101/2022.03.28.485913v1, “A unified in vitro to in vivo fluorescence lifetime screening platform yields amyloid β aggregation inhibitors” (biorxiv, 2022).

Assays:
amyloid β (1-42) (Aβ42) [1] = molecular target: T1, amyloid β (1-42) (Aβ42) (Homo sapiens, UniProt P05067); assay: nanoFLIM aggregation assay, TEM; assay type: biochemical; conditions: 10 μM Aβ42-488, 50% labelled, 10 or 50 μM compound; ThT assay masked by compound fluorescence
T1 construct: gene APP; Amyloid-beta 1-42 peptide cut from APP, 42 residues; synthetic, unlabelled or partly mixed with N-terminally HiLyte Fluor 488 labelled peptide; recombinant 15N peptide (AlexoTech) for NMR; aggregating, starting from monomer
T1 sequence (P05067 672-713): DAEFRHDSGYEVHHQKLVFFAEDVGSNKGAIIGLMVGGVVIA

amyloid β (1-42) (Aβ42) [2] = molecular target: T1, amyloid β (1-42) (Aβ42); assay: nanoFLIM aggregation kinetics, fluorescence lifetime in microfluidic droplets, initial rates; assay type: biochemical

Row | SMILES | nanoFLIM aggregation assay, TEM (amyloid β (1-42) (Aβ42) [1]) | IC50 (amyloid β (1-42) (Aβ42) [2])
1 | COC(=O)c1ccccc1NC(=O)c1cc(-c2ccccc2)nc2ccccc12 [MJ001] | MJ001 and MJ042 (Fig. 2a,b), showed weaker, yet significant inhibitory activity | 
2 | O=C(O)c1cc(-c2cccc(Br)c2)nc2ccc([N+](=O)[O-])cc12 [MJ040] |  | 4.3 ± 1.3 µM
3 | O=C(O)c1cc(-c2cc(F)cc(Cl)c2)nc2ccccc12 [MJ042] | MJ001 and MJ042 (Fig. 2a,b), showed weaker, yet significant inhibitory activity | 
